Test results published in the supplement of paper PMC6045584.
± gives the standard deviation of the averaged measurements.

Assays:
SAPACITABINE [1] = compound: T1, CCCCCCCCCCCCCCCC(=O)Nc1ccn([C@@H]2O[C@H](CO)[C@@H](O)[C@@H]2C#N)c(=O)n1 [SAPACITABINE]; assay: surviving fraction relative to DMSO-only wells; higher = less growth inhibition; details: exposure time: 5 days
In short: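 Five days of continuous inhibitor exposure, at 0.5, 1, 5, 10, 50, 100, 500 and 1000 nM, followed a 24-hour period after log-phase tumour cell lines were seeded at 250–500 cells per well in 384-well plates. Surviving fraction was derived from CellTiter-Glo luminescence relative to the median of DMSO-only wells. Plates were read after 10 minutes at room temperature, and lines screened three times were kept only if replicate Pearson r >0.7 and median Z' >0.3.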

CANERTINIB = compound: C=CC(=O)Nc1cc2c(Nc3ccc(F)c(Cl)c3)ncnc2cc1OCCCN1CCOCC1 [CANERTINIB]; assay: area under dose-response curve of surviving fraction (unscaled, Aref=0) (surviving fraction x log10(nM)); higher = more resistant; details: exposure time: 5 days; dose range 0.5-1000 nM
In short: (§1)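 Three screens per tumour cell line were run in 384-well plates at eight inhibitor concentrations from 0.5 to 1000 nM over five days. Surviving fractions, from CellTiter-Glo luminescence normalised to DMSO-only wells, were fitted with 3-parameter logistic curves in the drc R package. The reported area under the curve is the unscaled activity area. It spans log10 dose, and Aref is 0.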

SNX-5422 = compound: CC1(C)CC(=O)c2c(C(F)(F)F)nn(-c3ccc(C(N)=O)c(N[C@H]4CC[C@H](OC(=O)CN)CC4)c3)c2C1 [SNX-5422]; assay: as above; details: exposure time: 5 days; dose range 0.5-1000 nM
In short: as §1

SAPACITABINE [2] = compound: T1, SAPACITABINE; assay: as above; details: exposure time: 5 days; dose range 0.5-1000 nM
In short: as §1

BI-2536 = compound: CC[C@@H]1C(=O)N(C)c2cnc(Nc3ccc(C(=O)NC4CCN(C)CC4)cc3OC)nc2N1C1CCCC1 [BI-2536]; assay: as above; details: exposure time: 5 days; dose range 0.5-1000 nM
In short: as §1

AFATINIB = compound: CN(C)C/C=C/C(=O)Nc1cc2c(Nc3ccc(F)c(Cl)c3)ncnc2cc1O[C@H]1CCOC1 [AFATINIB]; assay: as above; details: exposure time: 5 days; dose range 0.5-1000 nM
In short: as §1

MDV3100 = compound: CNC(=O)c1ccc(N2C(=S)N(c3ccc(C#N)c(C(F)(F)F)c3)C(=O)C2(C)C)cc1F [MDV3100]; assay: as above; details: exposure time: 5 days; dose range 0.5-1000 nM
In short: as §1

[3] = compound: Cn1cc(C2=Nc3cc(NC(=O)C(N)C4CCCCC4)cc4c3C2=CNNC4=O)cn1; assay: as above; details: exposure time: 5 days; dose range 0.5-1000 nM
In short: as §1

TIOGUANINE = compound: Nc1nc2[nH]cnc2c(=S)[nH]1 [TIOGUANINE]; assay: as above; details: exposure time: 5 days; dose range 0.5-1000 nM
In short: as §1

Row | Test System | surviving fraction (SAPACITABINE [1]; 0.5 nM) | surviving fraction (SAPACITABINE [1]; 1 nM) | surviving fraction (SAPACITABINE [1]; 5 nM) | surviving fraction (SAPACITABINE [1]; 10 nM) | surviving fraction (SAPACITABINE [1]; 50 nM) | surviving fraction (SAPACITABINE [1]; 100 nM) | surviving fraction (SAPACITABINE [1]; 500 nM) | surviving fraction (SAPACITABINE [1]; 1000 nM) | area under dose-response curve (CANERTINIB) | area under dose-response curve (SNX-5422) | area under dose-response curve (SAPACITABINE [2]) | area under dose-response curve (BI-2536) | area under dose-response curve (AFATINIB) | area under dose-response curve (MDV3100) | area under dose-response curve [3] | area under dose-response curve (TIOGUANINE)
1 | MDAMB436 BREAST | 0.861 ± 0.07 | 0.795 ± 0.08 | 0.75 ± 0.074 | 0.719 ± 0.075 | 0.561 ± 0.029 | 0.497 ± 0.053 | 0.445 ± 0.049 | 0.352 ± 0.013 | 2.86 | 2.16 | 2.05 | 1.46 | 2.99 | 3.1 | 2.31 | 2.8
2 | MDAMB361 BREAST | 0.711 ± 0.096 | 0.624 ± 0.029 | 0.662 ± 0.06 | 0.648 ± 0.069 | 0.868 ± 0.097 | 0.771 ± 0.1 | 0.908 ± 0.093 | 0.872 ± 0.041 | 2.35 | 2.27 | 2.49 | 1.68 | 2.35 | 2.85 | 1.88 | 2.95
3 | U2OS BONE | 0.921 ± 0.066 | 0.938 ± 0.06 | 0.946 ± 0.035 | 0.936 ± 0.067 | 0.939 ± 0.016 | 0.83 ± 0.036 | 0.729 ± 0.019 | 0.66 ± 0.032 | 3.13 | 2.17 | 2.92 | 1.57 | 3.19 | 3.37 | 2.85 | 3.25
4 | CASKI CERVIX | 0.804 ± 0.055 | 0.843 ± 0.048 | 0.795 ± 0.026 | 0.746 ± 0.04 | 1.02 ± 0.053 | 0.936 ± 0.036 | 0.45 ± 0.019 | 0.268 ± 0.0036 | 1.85 | 1.63 | 2.91 | 0.43 | 0.986 | 3.17 | 2.04 | 3.1
5 | HELA CERVIX | 0.847 ± 0.031 | 0.843 ± 0.033 | 0.837 ± 0.027 | 0.819 ± 0.018 | 0.954 ± 0.064 | 1.02 ± 0.013 | 0.826 ± 0.066 | 0.794 ± 0.035 | 3.11 | 2.79 | 2.94 | 1 | 3.69 | 3.16 | 3.79 | 3.36
6 | NY BONE | 0.923 ± 0.043 | 0.872 ± 0.042 | 0.911 ± 0.024 | 0.812 ± 0.026 | 0.368 ± 0.02 | 0.262 ± 0.011 | 0.133 ± 0.0087 | 0.147 ± 0.0076 | 3.13 | 1.89 | 1.91 | 0.972 | 3.1 | 3.06 | 2.01 | 3.27
7 | MDAMB157 BREAST | 0.911 ± 0.034 | 0.859 ± 0.058 | 0.806 ± 0.077 | 0.755 ± 0.025 | 0.632 ± 0.069 | 0.619 ± 0.02 | 0.446 ± 0.02 | 0.306 ± 0.036 | 2.78 | 2.28 | 2.24 | 0.791 | 3.17 | 3.08 | 2.88 | 3.03
8 | SCC003 HEADNECK | 0.85 ± 0.04 | 0.797 ± 0.068 | 0.885 ± 0.028 | 0.784 ± 0.047 | 1.05 ± 0.041 | 0.879 ± 0.026 | 0.481 ± 0.003 | 0.339 ± 0.014 | 2.54 | 2.21 | 2.85 | 1.71 | 2.48 | 3.21 | 3.25 | 3.27
9 | G292 BONE | 0.947 ± 0.056 | 0.955 ± 0.026 | 0.927 ± 0.059 | 0.899 ± 0.061 | 0.618 ± 0.028 | 0.482 ± 0.012 | 0.326 ± 0.011 | 0.299 ± 0.0036 | 3.18 | 2.01 | 2.32 | 0.883 | 3.06 | 3.25 | 2.19 | 3.25
10 | YAMATO SYNOVIAL | 0.776 ± 0.044 | 0.446 ± 0.029 | 0.684 ± 0.053 | 0.11 ± 0.0083 | 1.04 ± 0.062 | 0.511 ± 0.021 | 0.402 ± 0.01 | 0.0903 ± 0.0049 | 3.14 | 2.53 | 1.68 | 1.27 | 4.09 | 2.85 | 2.58 | 4.3
11 | MHM BONE | 0.975 ± 0.036 | 0.97 ± 0.058 | 0.978 ± 0.034 | 0.996 ± 0.028 | 0.951 ± 0.027 | 0.789 ± 0.043 | 0.305 ± 0.012 | 0.262 ± 0.03 | 3.2 | 2.48 | 2.69 | 2.08 | 3.27 | 3.28 | 2.98 | 3.29
12 | HCC1395 BREAST | 0.861 ± 0.028 | 0.828 ± 0.045 | 0.949 ± 0.035 | 0.877 ± 0.04 | 0.935 ± 0.14 | 0.889 ± 0.028 | 0.808 ± 0.16 | 0.715 ± 0.15 | 3.33 | 3.15 | 2.91 | 2.69 | 3.5 | 3.87 | 2.62 | 3.56
13 | HOS BONE | 0.899 ± 0.01 | 0.912 ± 0.0076 | 0.927 ± 0.018 | 0.911 ± 0.024 | 0.975 ± 0.041 | 0.831 ± 0.026 | 0.209 ± 0.035 | 0.224 ± 0.007 | 3.14 | 1.72 | 2.63 | 0.874 | 3.28 | 3.36 | 2.35 | 3.16
14 | NCIH441 LUNG | 1.042 ± 0.009 | 0.975 ± 0.077 | 1.02 ± 0.036 | 0.913 ± 0.034 | 0.53 ± 0.023 | 0.363 ± 0.051 | 0.34 ± 0.025 | 0.312 ± 0.023 | 3.05 | 2.63 | 2.28 | 1.79 | 3.02 | 3.25 | 2.85 | 3.28
15 | MDAMB468 BREAST | 0.811 ± 0.012 | 0.862 ± 0.087 | 0.88 ± 0.069 | 0.847 ± 0.086 | 0.792 ± 0.03 | 0.56 ± 0.07 | 0.204 ± 0.018 | 0.193 ± 0.028 | 2.41 | 1.94 | 2.27 | 1.06 | 2.26 | 3.41 | 2.58 | 3.52
16 | SG32 HEADNECK | 0.715 ± 0.068 | 0.614 ± 0.17 | 0.907 ± 0.12 | 0.429 ± 0.12 | 0.707 ± 0.11 | 0.487 ± 0.065 | 0.447 ± 0.082 | 0.289 ± 0.078 | 2.35 | 1.98 | 1.91 | 1.44 | 2.94 | 3.4 | 2.65 | 3.59
17 | 93VU HEADNECK | 0.75 ± 0.041 | 0.764 ± 0.051 | 0.862 ± 0.059 | 0.849 ± 0.16 | 1.02 ± 0.026 | 0.927 ± 0.049 | 0.74 ± 0.086 | 0.611 ± 0.017 | 2.56 | 2.18 | 2.69 | 1.49 | 1.9 | 3.11 | 3.08 | 3.19
